The record followed here is PubChem BioAssay (NCI).

SMILES strings stand for the structures.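 Cultured in 96-well plates, cells were exposed to test compound for 48 hours across five concentrations. GI50 is the concentration that inhibits growth by half. Definition used: TGI = concentration required for complete inhibition of growth.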

Among the test systems are U251 CNS; K-562 leukemia; SW-620 colon; HS 578T breast; RXF 393 renal; TK-10 renal; HOP-62 NSCLC; SNB-75 CNS; RPMI-8226 leukemia; SF-295 CNS.
Experiment in all cases: NCI anticancer screen, dose series, 48 h

As for `CCc1ccc2nccc(NCCCN(C)C)c2c1[N+](=O)[O-]`, the TGI in the test with U251 CNS, with K-562 leukemia, with SW-620 colon, with HS 578T breast, in the test with RXF 393 renal and with TK-10 renal was > 100 µM throughout. Moreover, the TGI with HOP-62 NSCLC, in the test with SNB-75 CNS, in the test with RPMI-8226 leukemia and in the test on SF-295 CNS was > 100 µM each time.
With `Cc1ccc2nc(-c3ccc(N)c4ccccc34)[nH]c2c1`, the GI50 in the test with U251 CNS was 0.0619 µM; in the test on K-562 leukemia, 0.763 µM; in the test with HS 578T breast, 0.263 µM; in the test with RXF 393 renal it was 0.265 µM; in the test with TK-10 renal, 0.878 µM; in the test on HOP-62 NSCLC, 0.617 µM. Further, the GI50 with SNB-75 CNS is 1.38 µM; in the test with RPMI-8226 leukemia, 0.0298 µM; in the test with SF-295 CNS it was 0.716 µM. Further, the TGI with U251 CNS was 22.5 µM; in the test on K-562 leukemia it was 39.7 µM; with SW-620 colon it was 27.5 µM; in the test with HS 578T breast, 32.4 µM; in the test with RXF 393 renal it was 14.7 µM; with TK-10 renal it was 59.6 µM. Also, the figures for the TGI in the test with HOP-62 NSCLC, with RPMI-8226 leukemia and with SF-295 CNS were 4.39 µM, 0.934 µM and 9.53 µM, respectively.
With `C=C1C(OC/C=C/COC2O[C@@H]3O[C@@]4(C)CC[C@H]5[C@H](C)CC[C@@H](C2=C)[C@@]35OO4)O[C@@H]2O[C@@]3(C)CC[C@H]4[C@H](C)CC[C@@H]1[C@@]24OO3` (stereo partly specified), the GI50 with U251 CNS is 12.1 µM; in the test on K-562 leukemia, 0.0949 µM; with SW-620 colon it was 0.0863 µM; in the test with HS 578T breast, 12.6 µM; in the test with RXF 393 renal, 0.166 µM; with TK-10 renal, 0.492 µM. The GI50 with HOP-62 NSCLC is 15.8 µM; in the test with SNB-75 CNS, 7.99 µM. Further, the TGI in the test on U251 CNS was 25.7 µM; with K-562 leukemia it was > 67.3 µM; with SW-620 colon, 23.6 µM; with HS 578T breast, 59.6 µM; in the test with RXF 393 renal, 5.93 µM; with TK-10 renal, 16.9 µM. Also, the TGI in the test with HOP-62 NSCLC stood at 41.5 µM; in the test on SNB-75 CNS, 31.1 µM; with RPMI-8226 leukemia, 10.6 µM; in the test on SF-295 CNS, 2.19 µM.
As to `Nc1nccc2c1ncn2C1OC(CO)C(O)C1O` (stereo unspecified), the GI50 in the test on U251 CNS is > 100 µM; in the test with K-562 leukemia, > 100 µM; in the test with SW-620 colon it was 92.4 µM; in the test on HS 578T breast, > 100 µM; in the test with RXF 393 renal, 48.5 µM; with TK-10 renal, > 100 µM. Also, the GI50 with HOP-62 NSCLC, in the test on SNB-75 CNS, in the test with RPMI-8226 leukemia and in the test with SF-295 CNS was > 100 µM throughout. Moreover, the TGI in the test on U251 CNS, in the test with K-562 leukemia, in the test on SW-620 colon, in the test on HS 578T breast, with RXF 393 renal and in the test with TK-10 renal was > 100 µM each time. Also, the TGI in the test with HOP-62 NSCLC, in the test with SNB-75 CNS, in the test with RPMI-8226 leukemia and with SF-295 CNS was > 100 µM throughout.
On to `COC(=O)[C@]12CC[C@@H](C)[C@H](C)[C@@H]1C1=CC[C@@H]3[C@@]4(C)C(C=O)=C[C@@](C)(COS(C)(=O)=O)C4[C@H](O)C[C@@]3(C)[C@]1(C)CC2` (stereo partly specified), for which the GI50 was 1.65 µM in the test with U251 CNS; 0.797 µM with K-562 leukemia; 2.36 µM in the test with SW-620 colon; 3.12 µM in the test on HS 578T breast; 1.53 µM in the test on RXF 393 renal; 2 µM in the test on TK-10 renal. The GI50 is 2.23 µM in the test on HOP-62 NSCLC, 1.51 µM in the test on SNB-75 CNS, 0.342 µM in the test on RPMI-8226 leukemia and 1.31 µM in the test on SF-295 CNS. Besides, the TGI in the test with U251 CNS is 3.17 µM; in the test on K-562 leukemia it was 6.28 µM; in the test with SW-620 colon, 5.7 µM; in the test on HS 578T breast, 8.77 µM; in the test on RXF 393 renal, 2.9 µM; in the test on TK-10 renal, 4.91 µM. Moreover, the TGI with HOP-62 NSCLC was found to be 4.45 µM; with SNB-75 CNS it was 8.86 µM; with RPMI-8226 leukemia, 1.99 µM; in the test on SF-295 CNS, 2.77 µM.
For `COc1ccc2c(c1)c(-c1ccc(-c3cn(C)c4ccc(OC)cc34)[nH]1)cn2C`, the GI50 in the test on U251 CNS was 1.4 µM; with K-562 leukemia, 1.48 µM; with SW-620 colon it was 2.26 µM; with HS 578T breast, 1.36 µM; in the test with RXF 393 renal, 1.4 µM; in the test with TK-10 renal it was 3.56 µM. For the same compound, the GI50 with HOP-62 NSCLC is 10.1 µM; in the test on SNB-75 CNS it was 2.25 µM; with RPMI-8226 leukemia, 1.28 µM; in the test with SF-295 CNS it was 4.59 µM. Also, the TGI with U251 CNS worked out at 3.52 µM; in the test on K-562 leukemia it was 6.8 µM; in the test on SW-620 colon, 5.86 µM; in the test with HS 578T breast, 4.24 µM; with RXF 393 renal it was 3.52 µM; in the test on TK-10 renal, 10.7 µM. In addition, the TGI with HOP-62 NSCLC was 33.5 µM; in the test on SNB-75 CNS it was 6.26 µM; with RPMI-8226 leukemia, 3.38 µM; in the test with SF-295 CNS, 45.7 µM.
`COc1cc2c3c(n(CCCBr)c(=O)c2cc1OC)-c1ccc(F)cc1C3=O`: the GI50 is 3.74 µM in the test with U251 CNS; 16.3 µM with K-562 leukemia; 7.02 µM in the test on SW-620 colon; 32 µM in the test on HS 578T breast; 34.4 µM in the test with RXF 393 renal; 32.7 µM in the test with TK-10 renal. The GI50 in the test on HOP-62 NSCLC was 4.21 µM; in the test on SNB-75 CNS, 12.9 µM; with RPMI-8226 leukemia it was 12.6 µM; in the test on SF-295 CNS, 1.69 µM. For the same compound, the TGI in the test with U251 CNS was 24.3 µM; in the test with K-562 leukemia it was > 100 µM; in the test with SW-620 colon it was > 100 µM; in the test with HS 578T breast, > 100 µM; with RXF 393 renal, > 100 µM; in the test with TK-10 renal, > 100 µM. For the same compound, the TGI in the test with HOP-62 NSCLC worked out at 25 µM; in the test on SNB-75 CNS, 28.2 µM; in the test on RPMI-8226 leukemia, 38.1 µM; in the test on SF-295 CNS it was 9.23 µM.
On to `NS(=O)(=O)c1ccc(-n2ncc3c(Nc4ccccc4)ncnc32)cc1`, for which the GI50 in the test with U251 CNS is 26.9 µM; in the test with K-562 leukemia, 4.44 µM; with SW-620 colon it was 30.3 µM; in the test with HS 578T breast, 33.8 µM; in the test with RXF 393 renal it was 29.6 µM; in the test on TK-10 renal it was 19.1 µM. Besides, the GI50 with HOP-62 NSCLC was 16.7 µM; in the test with SNB-75 CNS, 33.5 µM; with RPMI-8226 leukemia it was 15.3 µM; in the test with SF-295 CNS, 16.9 µM. Moreover, the TGI was > 100 µM in the test on U251 CNS; 37.7 µM in the test with K-562 leukemia; > 100 µM in the test on SW-620 colon; > 100 µM with HS 578T breast; > 100 µM in the test on RXF 393 renal; > 100 µM in the test with TK-10 renal. The TGI was 48.5 µM in the test with HOP-62 NSCLC, > 100 µM in the test with SNB-75 CNS, 76.6 µM in the test on RPMI-8226 leukemia and 53.4 µM with SF-295 CNS.
